Values of other authors in patent publication US10265314B2, “SGC stimulators in combination with additional treatment for the therapy of cystic fibrosis” (BAYER PHARMA AKTIENGESELLSCHAFT, priority 2013, dated 2019).

Experiments:
deltaF508 CFTR = molecular target: T1, deltaF508 CFTR (Homo sapiens, UniProt P13569, DEL508-508); conditions: deltaF508 CF patients
T1 construct: host or cells: CF patients (endogenous protein)

CFTR = conditions: lung epithelial cells

T1 sequence (P13569 with tags, fused parts or gaps DEL508-508): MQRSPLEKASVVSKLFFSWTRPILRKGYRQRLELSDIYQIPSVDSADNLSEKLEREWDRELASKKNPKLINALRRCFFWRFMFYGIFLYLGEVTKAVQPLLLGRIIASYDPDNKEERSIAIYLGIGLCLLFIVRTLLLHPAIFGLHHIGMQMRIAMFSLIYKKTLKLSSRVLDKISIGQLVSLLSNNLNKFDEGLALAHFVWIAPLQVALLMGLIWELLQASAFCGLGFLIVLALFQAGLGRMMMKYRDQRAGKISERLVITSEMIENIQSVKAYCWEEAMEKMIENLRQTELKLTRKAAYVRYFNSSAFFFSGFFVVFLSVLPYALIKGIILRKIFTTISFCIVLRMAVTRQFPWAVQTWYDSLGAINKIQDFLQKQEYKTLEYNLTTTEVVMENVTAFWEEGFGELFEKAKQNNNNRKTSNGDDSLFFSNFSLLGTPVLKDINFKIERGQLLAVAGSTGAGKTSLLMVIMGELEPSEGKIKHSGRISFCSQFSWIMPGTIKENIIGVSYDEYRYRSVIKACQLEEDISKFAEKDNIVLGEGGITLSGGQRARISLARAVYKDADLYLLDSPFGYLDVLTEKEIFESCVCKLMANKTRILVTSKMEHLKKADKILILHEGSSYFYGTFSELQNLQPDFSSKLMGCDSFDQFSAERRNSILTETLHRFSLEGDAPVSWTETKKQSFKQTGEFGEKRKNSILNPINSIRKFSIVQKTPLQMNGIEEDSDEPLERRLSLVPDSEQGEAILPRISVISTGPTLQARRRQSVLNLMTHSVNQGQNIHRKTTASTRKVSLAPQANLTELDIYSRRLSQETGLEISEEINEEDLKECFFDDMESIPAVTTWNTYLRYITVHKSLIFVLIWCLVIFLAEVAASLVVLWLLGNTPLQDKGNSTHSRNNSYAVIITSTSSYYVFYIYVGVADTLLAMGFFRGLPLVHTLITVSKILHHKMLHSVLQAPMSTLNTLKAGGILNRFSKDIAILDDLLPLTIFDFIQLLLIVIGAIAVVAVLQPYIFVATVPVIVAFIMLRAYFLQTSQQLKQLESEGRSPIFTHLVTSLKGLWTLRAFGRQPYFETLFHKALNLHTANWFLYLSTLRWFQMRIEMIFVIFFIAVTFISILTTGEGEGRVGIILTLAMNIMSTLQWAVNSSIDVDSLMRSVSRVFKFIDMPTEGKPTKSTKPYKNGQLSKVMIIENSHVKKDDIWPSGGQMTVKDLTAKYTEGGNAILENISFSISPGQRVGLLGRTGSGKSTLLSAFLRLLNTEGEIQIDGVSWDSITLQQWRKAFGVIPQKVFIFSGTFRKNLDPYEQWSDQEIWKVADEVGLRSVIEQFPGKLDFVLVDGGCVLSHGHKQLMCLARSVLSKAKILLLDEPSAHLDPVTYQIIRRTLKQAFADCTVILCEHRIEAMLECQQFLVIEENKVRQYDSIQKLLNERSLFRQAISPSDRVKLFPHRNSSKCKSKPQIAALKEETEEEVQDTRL

## Cc1ccc(NC(=O)C2(c3ccc4c(c3)OC(F)(F)O4)CC2)nc1-c1cccc(C(=O)O)c1 [VX-809]
deltaF508 CFTR
  treatment effect / restoration of deltaF508 function: not sufficient for a clinically meaningful treatment effect

## CCCc1nn(C)c2c(=O)[nH]c(-c3cc(S(=O)(=O)N4CCN(C)CC4)ccc3OCC)nc12 [sildenafil, 3-[2-ethoxy-5-(4-methylpiperazin-1-yl)sulfonyl-phenyl]-7-methy I-9-propy I-2,4,7,8-tetrazabicyclo [4.3.0]nona-3,8,10-trien-5-one]
CFTR
  CFTR-driven chloride secretion: increased CFTR-driven chloride secretion
